The target of the test is human mGlu4 receptor (Homo sapiens (Human), UniProt Q14833). Briefly: Ca2+ mobilization in vitro assay on recombinant human mGlu4 expressed in HEK293 cells (mGlu4 PAM). It counts as cell-based. Particulars: for EC50: HEK293 cells stably expressing human mGlu4, L-AP4 added at EC20, read-out: EC50 (nM) mGlu4PAM; for Eff. (%): maximal response in % of the maximal stimulatory effect obtained with saturating concentrations of L-AP4. Here is the method: Determination of EC50 Values Using a Ca2+ Mobilization In Vitro Assay on Recombinant Human mGlu4 Expressed in HEK293 Cells:
A monoclonal HEK-293 cell line stably transfected with a cDNA encoding for the human mGlu4 receptor was generated; for the work with mGlu4 Positive Allosteric Modulators (PAMs), a cell line with low receptor expression levels and low constitutive receptor activity was selected to allow the differentiation of agonistic versus PAM activity. Cells were cultured according to standard protocols (Freshney, 2000) in Dulbecco's Modified Eagle Medium with high glucose supplemented with 1 mM glutamine, 10% (vol/vol) heat-inactivated bovine calf serum, Penicillin/Streptomycin, 50 μg/ml hygromycin and 15 μg/ml blasticidin (all cell culture reagents and antibiotics from Invitrogen, Basel, Switzerland).
About 24 hrs before an experiment, 5×10^4 cells/well were seeded in poly-D-lysine coated, black/clear-bottomed 96-well plates. The cells were loaded with 2.5 μM Fluo-4AM in loading buffer (1×HBSS, 20 mM HEPES) for 1 hr at 37° C. and washed five times with loading buffer. The cells were transferred into a Functional Drug Screening System 7000 (Hamamatsu, Paris, France), and 11 half logarithmic serial dilutions of test compound at 37° C. were added and the cells were incubated for 10-30 min. with on-line recording of fluorescence. Following this pre-incubation step, the agonist (2S)-2-amino-4-phosphonobutanoic acid (L-AP4) was added to the cells at a concentration corresponding to EC20 with on-line recording of fluorescence; in order to account for day-to-day variations in the responsiveness of cells, the EC20 of L-AP4 was determined immediately ahead of each experiment by recording of a full dose-response curve of L-AP4.
Responses were measured as peak increase in fluorescence minus basal (i.e. fluorescence without addition of L-AP4), normalized to the maximal stimulatory effect obtained with saturating concentrations of L-AP4. Graphs were plotted with the % maximal stimulatory using XLfit, a curve fitting program that iteratively plots the data using Levenburg Marquardt algorithm. The single site competition analysis equation used was y=A+((B−A)/(1+((x/C)D))), where y is the % maximal stimulatory effect, A is the minimum y, B is the maximum y, C is the EC50, x is the log 10 of the concentration of the competing compound and D is the slope of the curve (the Hill Coefficient). From these curves the EC50 (drug concentration at which 50% of the maximal receptor activation was achieved), the Hill coefficient as well as the maximal response in % of the maximal stimulatory effect obtained with saturating concentrations of L-AP4 were calculated (see FIG. 1).
A depression of the signal observed after addition of the EC20 concentration of L-AP4 was indicative of an inhibitory activity of the test compound. • FIG. 1: Illustration of the experimental outline for mGlu4 PAM Ca2+ mobilization screening assay and the determination of EC50 and % Emax values.
(A change in cytosolic calcium serves as a functional read-out for many receptors and channels.)

Structures are written as SMILES.

For orientation: EC50 means the concentration needed to bring the measured effect to its halfway point.

human mGlu4 receptor, sequence (Q14833 33-912): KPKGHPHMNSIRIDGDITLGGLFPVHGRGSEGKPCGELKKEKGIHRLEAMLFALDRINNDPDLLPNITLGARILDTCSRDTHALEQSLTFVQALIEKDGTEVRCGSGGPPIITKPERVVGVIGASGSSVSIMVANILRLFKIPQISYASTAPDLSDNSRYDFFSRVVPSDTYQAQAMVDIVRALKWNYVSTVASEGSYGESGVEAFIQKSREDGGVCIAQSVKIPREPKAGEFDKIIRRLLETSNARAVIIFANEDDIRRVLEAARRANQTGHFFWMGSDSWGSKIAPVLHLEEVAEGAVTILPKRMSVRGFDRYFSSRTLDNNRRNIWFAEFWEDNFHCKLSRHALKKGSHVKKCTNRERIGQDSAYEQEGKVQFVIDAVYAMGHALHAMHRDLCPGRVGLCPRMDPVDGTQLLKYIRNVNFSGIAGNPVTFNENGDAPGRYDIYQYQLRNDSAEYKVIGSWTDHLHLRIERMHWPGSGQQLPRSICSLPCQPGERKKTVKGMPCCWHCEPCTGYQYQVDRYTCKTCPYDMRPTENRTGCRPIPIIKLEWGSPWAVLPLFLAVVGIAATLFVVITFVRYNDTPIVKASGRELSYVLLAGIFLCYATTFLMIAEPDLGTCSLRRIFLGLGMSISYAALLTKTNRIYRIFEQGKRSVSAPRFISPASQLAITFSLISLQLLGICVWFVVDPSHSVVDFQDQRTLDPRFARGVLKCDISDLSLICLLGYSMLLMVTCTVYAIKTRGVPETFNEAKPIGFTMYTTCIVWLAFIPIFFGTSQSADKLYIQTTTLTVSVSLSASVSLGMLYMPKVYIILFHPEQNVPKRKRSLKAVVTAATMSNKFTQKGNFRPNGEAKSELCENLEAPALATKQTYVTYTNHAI

Regarding `Cn1c(=O)n(-c2ccc(C#Cc3ccccc3)cc2Cl)c(=O)c2ccc(F)c(F)c21` [Example 19, 3-[2-Chloro-4-(2-phenylethynyl)phenyl]-7,8-difluoro-1-methyl-quinazoline-2,4-dione], the EC50 was 134 nM and the “Eff. (%)” value was 73%.

For the molecule `Cn1c(=O)n(-c2ccc(C#Cc3ccccc3)cc2Cl)c(=O)c2ccccc21` [Example 1, 3-[2-Chloro-4-(2-phenylethynyl)phenyl]-1-methyl-quinazoline-2,4-dione], the EC50 was 150 nM and the “Eff. (%)” value was 102%.

`Cn1c(=O)n(-c2ccc(C#Cc3ccccc3)cc2Cl)c(=O)c2nccnc21` [Example 15, 3-[2-Chloro-4-(2-phenylethynyl)phenyl]-1-methyl-pteridine-2,4-dione]: the EC50 is 110 nM and the “Eff. (%)” value amounted to 111%.

In the case of `CC(C)n1c(=O)n(-c2c(F)cc(C#Cc3cccnc3)cc2Cl)c(=O)c2ccccc21` [Example 42, 3-[2-Chloro-6-fluoro-4-[2-(3-pyridyl)ethynyl]phenyl]-1-isopropyl-quinazoline-2,4-dione], the concentration giving a half-maximal response (EC50) was found to be 83 nM and the “Eff. (%)” value was found to be 80%.

As to `Cn1c(=O)n(-c2ccc(C#Cc3ccccc3)cc2Cl)c(=O)c2scnc21` [Example 52, 6-(2-Chloro-4-phenylethynyl-phenyl)-4-methyl-4H-thiazolo[4,5-d]pyrimidine-5,7-dione], the EC50 turned out to be 200 nM and the “Eff. (%)” value came out at 110%.

Take `Cn1c(=O)n(-c2c(F)cc(C#Cc3ccccc3)cc2F)c(=O)c2nsnc21` [Example 39, 6-[2,6-Difluoro-4-(2-phenylethynyl)phenyl]-4-methyl-[1,2,5]thiadiazolo[3,4-d]pyrimidine-5,7-dione]: the half-maximal effective concentration (EC50) was 17 nM and the “Eff. (%)” value was 107%.

Consider `Cc1cccc2c1c(=O)n(-c1ccc(C#Cc3ccccc3)cc1Cl)c(=O)n2C` [Example 41, 3-[2-Chloro-4-(2-phenylethynyl)phenyl]-1,5-dimethyl-quinazoline-2,4-dione], for which the EC50 was 231 nM and the “Eff. (%)” value was determined as 98%.

For `CC(C)n1c(=O)n(-c2c(F)cc(C#Cc3ccccc3)cc2F)c(=O)c2cccnc21` [Example 37, 3-[2,6-Difluoro-4-(2-phenylethynyl)phenyl]-1-isopropyl-pyrido[2,3-d]pyrimidine-2,4-dione], the EC50 was 88 nM and the “Eff. (%)” value was 73%.

`Cn1c(=O)n(-c2ccc(C#Cc3ccccc3)cc2Cl)c(=O)c2cc(F)ccc21` [Example 18, 3-[2-Chloro-4-(2-phenylethynyl)phenyl]-6-fluoro-1-methyl-quinazoline-2,4-dione]: the EC50 is 148 nM and the “Eff. (%)” value was 86%.

On to `CC(C)n1c(=O)n(-c2ccc(C#Cc3ccccc3)cc2Cl)c(=O)c2ccccc21` [Example 13, 3-[2-Chloro-4-(2-phenylethynyl)phenyl]-1-isopropyl-quinazoline-2,4-dione], for which the concentration giving a half-maximal response (EC50) came out at 57 nM and the “Eff. (%)” value is 115%.

On to `CC(C)n1c(=O)n(-c2c(F)cc(C#Cc3cccnc3)cc2F)c(=O)c2nn(C)cc21` [Example 57, 6-[2,6-Difluoro-4-[2-(3-pyridyl)ethynyl]phenyl]-4-isopropyl-2-methyl-pyrazolo[4,3-d]pyrimidine-5,7-dione], for which the concentration giving a half-maximal response (EC50) is 65 nM and the “Eff. (%)” value is listed as 134%.

Consider `COc1cccc2c(=O)n(-c3ccc(C#Cc4ccccc4)cc3Cl)c(=O)n(C)c12` [Example 65, 3-[2-Chloro-4-(2-phenylethynyl)phenyl]-8-methoxy-1-methyl-quinazoline-2,4-dione], for which the EC50 came out at 32 nM and the “Eff. (%)” value stood at 97%.

`Cc1ccc2c(=O)n(-c3ccc(C#Cc4ccccc4)cc3Cl)c(=O)n(C)c2c1` [Example 5, 3-[2-Chloro-4-(2-phenylethynyl)phenyl]-1,7-dimethyl-quinazoline-2,4-dione]: the EC50 stood at 93 nM and the “Eff. (%)” value is on record as 108%.

`O=c1c2ccccc2n(C2COC2)c(=O)n1-c1c(F)cc(C#Cc2cccnc2)cc1Cl` [Example 71, 3-[2-Chloro-6-fluoro-4-[2-(3-pyridyl)ethynyl]phenyl]-1-(oxetan-3-yl)quinazoline-2,4-dione]: the half-maximal effective concentration (EC50) came out at 86 nM and the “Eff. (%)” value came to 103%.

For `CC(C)n1c(=O)n(-c2c(F)cc(C#Cc3ccccc3)cc2F)c(=O)c2nn(C)cc21` [Example 35, 6-[2,6-Difluoro-4-(2-phenylethynyl)phenyl]-4-isopropyl-2-methyl-pyrazolo[4,3-d]pyrimidine-5,7-dione], the EC50 amounted to 30 nM and the “Eff. (%)” value came out at 89%.

As for `Cn1c(=O)n(-c2ccc(C#Cc3ccccc3)cc2Cl)c(=O)c2cncnc21` [Example 17, 3-[2-Chloro-4-(2-phenylethynyl)phenyl]-1-methyl-pyrimido[4,5-d]pyrimidine-2,4-dione], the 50% effective concentration (EC50) was 143 nM and the “Eff. (%)” value is 101%.

In the case of `O=c1[nH]c2ncncc2c(=O)n1-c1ccc(C#Cc2ccccc2)cc1Cl` [Example 16, 3-[2-Chloro-4-(2-phenylethynyl)phenyl]-1H-pyrimido[4,5-d]pyrimidine-2,4-dione], the concentration giving a half-maximal response (EC50) was 152 nM and the “Eff. (%)” value turned out to be 98%.

Turning to `CC(C)c1cccc2c(=O)n(-c3ccc(C#Cc4ccccc4)cc3Cl)c(=O)n(C)c12` [Example 54, 3-[2-Chloro-4-(2-phenylethynyl)phenyl]-8-isopropyl-1-methyl-quinazoline-2,4-dione], the half-maximal effective concentration (EC50) was 179 nM and the “Eff. (%)” value came out at 97%.

In the case of `COCCn1c(=O)n(-c2ccc(C#Cc3ccccc3)cc2Cl)c(=O)c2ccccc21` [Example 50, 3-[2-Chloro-4-(2-phenylethynyl)phenyl]-1-(2-methoxyethyl)quinazoline-2,4-dione], the concentration giving a half-maximal response (EC50) stood at 499 nM and the “Eff. (%)” value is reported as 110%.

As for `Cn1c(=O)n(-c2c(F)cc(C#Cc3ccccc3)cc2F)c(=O)c2cccc(OCC(F)F)c21` [Example 74, 8-(2,2-Difluoroethoxy)-3-[2,6-difluoro-4-(2-phenylethynyl)phenyl]-1-methyl-quinazoline-2,4-dione], the EC50 came out at 60 nM and the “Eff. (%)” value is 122%.

In the case of `Cn1c(=O)n(-c2c(F)cc(C#Cc3ccccc3)cc2F)c(=O)c2scnc21` [Example 32, 6-[2,6-Difluoro-4-(2-phenylethynyl)phenyl]-4-methyl-thiazolo[4,5-d]pyrimidine-5,7-dione], the concentration giving a half-maximal response (EC50) worked out at 33 nM and the “Eff. (%)” value is given as 104%.

`O=c1[nH]c2ncccc2c(=O)n1-c1ccc(C#Cc2ccccc2)cc1Cl` [Example 6, 3-[2-Chloro-4-(2-phenylethynyl)phenyl]-1H-pyrido[2,3-d]pyrimidine-2,4-dione]: the concentration for a half-maximal effect (EC50) was found to be 179 nM and the “Eff. (%)” value is reported as 104%.

With `CCn1c(=O)n(-c2ccc(C#Cc3ccccc3)cc2Cl)c(=O)c2ccccc21` [Example 14, 3-[2-Chloro-4-(2-phenylethynyl)phenyl]-1-ethyl-quinazoline-2,4-dione], the concentration giving a half-maximal response (EC50) was found to be 172 nM and the “Eff. (%)” value was determined as 97%.

Take `Cn1cnc2c1c(=O)n(-c1c(F)cc(C#Cc3ccccc3)cc1F)c(=O)n2C` [Example 69, 1-[2,6-Difluoro-4-(2-phenylethynyl)phenyl]-3,7-dimethyl-purine-2,6-dione]: the half-maximal effective concentration (EC50) came to 50 nM and the “Eff. (%)” value came to 113%.
